Test results from ChEMBL document CHEMBL1201862, “PubChem BioAssay data set” (2004).
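Growth conditions: 96-well plates. Treatment: test compound, 48 hours, 5 concentrations. Analysis: linear interpolation between bracketing concentrations; unreached endpoints set to highest concentration. GI50: concentration for 50% inhibition of growth.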 Active and inactive are the calls of the source. Rule as the data show it: active = GI50 up to about 1.1 µM and inactive = higher.

How the values were obtained:
Test in all cases: DTP human tumour cell line panel, 48 h
[1] = test system: 786-0
[2] = test system: ACHN
[3] = test system: CAKI-1
[4] = test system: CCRF-CEM
[5] = test system: COLO 205
[6] = test system: HCT-15
[7] = test system: HOP-62
[8] = test system: HT-29
[9] = test system: Hs-578T
[10] = test system: IGROV-1
[11] = test system: MDA-MB-231
[12] = test system: Malme-3M
[13] = test system: NCI-H23
[14] = test system: NCI-H522
[15] = test system: SF-539
[16] = test system: SK-MEL-5
[17] = test system: SNB-19
[18] = test system: SR
[19] = test system: T47D
[20] = test system: TK-10

Measured: GI50

COc1cccc2nc3c(C(=O)NCCN(C)C)cccc3cc12
active: [2] 0.655 µM | [3] 0.619 µM | [4] 0.518 µM | [18] 0.42 µM
1.91 µM: [6]
inactive: [1] 1.16 µM | [5] 1.13 µM | [7] 1.19 µM | [8] 1.21 µM | [9] 1.82 µM | [10] 1.88 µM | [11] 2.37 µM | [12] 1.56 µM | [13] 1.17 µM | [14] 1.26 µM | [15] 1.85 µM | [16] 1.41 µM | [17] 2.35 µM | [19] 3.65 µM | [20] 2.57 µM

CCCCOC(=O)NC(Nc1ccc(S(=O)(=O)Nc2ncccn2)cc1)(C(F)(F)F)C(F)(F)F
inactive: [1] > 100 µM | [2] > 100 µM | [3] > 100 µM | [4] 76 µM | [5] > 100 µM | [7] > 100 µM | [8] > 100 µM | [9] > 100 µM | [10] > 100 µM | [11] > 100 µM | [12] > 100 µM | [13] > 100 µM | [14] > 100 µM | [15] > 100 µM | [16] > 100 µM | [17] > 100 µM | [18] 78.2 µM | [19] 37 µM | [20] > 100 µM
> 100 µM: [6]

COC(=O)C1=CON2C3CC4CC(C3)CC(C4)C12C (stereo not given)
> 100 µM: [6]
inactive: [1] > 100 µM | [2] > 100 µM | [3] > 100 µM | [4] > 100 µM | [5] > 100 µM | [7] > 100 µM | [8] > 100 µM | [9] > 100 µM | [10] > 100 µM | [11] > 100 µM | [12] > 100 µM | [13] > 100 µM | [14] > 100 µM | [15] > 100 µM | [16] > 100 µM | [17] > 100 µM | [18] > 100 µM | [19] > 100 µM | [20] > 100 µM

Cn1c(N/N=C/c2ccccc2)nc(-c2ccc3c(c2)OCO3)c(C#N)c1=O
inactive: [1] > 100 µM | [2] 59.3 µM | [3] 99.3 µM | [4] 94 µM | [5] 58.3 µM | [7] > 100 µM | [8] > 100 µM | [9] 48.5 µM | [10] 20.9 µM | [11] 14 µM | [12] > 100 µM | [13] > 100 µM | [14] > 100 µM | [15] > 100 µM | [16] 69 µM | [17] > 100 µM | [18] 25.5 µM | [19] > 100 µM | [20] 69.7 µM
36.5 µM: [6]

C[C@]12CCC(=O)C=C1CC[C@@H]1[C@@H]2CC[C@]2(C)C(=O)/C(=C/c3ccc([N+](=O)[O-])cc3)C[C@@H]12
inactive: [1] 18.6 µM | [2] 2.36 µM | [3] 8.95 µM | [4] 8.97 µM | [5] 7.41 µM | [7] 49.8 µM | [8] > 100 µM | [9] > 100 µM | [10] > 100 µM | [11] 75.2 µM | [12] 70.8 µM | [13] 27.8 µM | [14] 4.66 µM | [15] 79.3 µM | [16] 3.47 µM | [17] > 100 µM | [18] 2.9 µM | [19] 3.48 µM | [20] > 100 µM
10.5 µM: [6]

COc1cc2cc(C(=O)N3CC(CCl)c4ccc(N(C)C)cc43)[nH]c2c(OC)c1OC (stereo not given)
0.145 µM: [6]
active: [1] 0.0361 µM | [2] 0.0199 µM | [3] 0.0395 µM | [4] 0.0547 µM | [5] 0.0851 µM | [7] 0.128 µM | [8] 0.0817 µM | [9] 0.294 µM | [10] 0.0601 µM | [11] 0.234 µM | [12] 0.109 µM | [13] 0.0303 µM | [14] 0.0127 µM | [15] 0.0559 µM | [16] 0.131 µM | [17] 0.304 µM | [18] 0.0151 µM | [19] 0.078 µM | [20] 0.13 µM

COc1cc(CC(C)C(C)Cc2ccc(O)c(OC)c2)ccc1O (stereo not given) [DIHYDROGUAIARETIC ACID]
20 µM: [6]
inactive: [1] 19.9 µM | [2] 13.1 µM | [3] 16.9 µM | [4] 13.3 µM | [5] > 50 µM | [7] 23.9 µM | [8] 22.5 µM | [9] 8.15 µM | [10] 12.7 µM | [11] 10.1 µM | [12] 13.1 µM | [13] 16.9 µM | [14] 9.86 µM | [15] 31.8 µM | [16] 8.55 µM | [17] 21.8 µM | [18] 9.2 µM | [19] 16.3 µM | [20] 34 µM
